From patent US20230085307A1, “PYRIDAZINONE COMPOUND AND HERBICIDE” (NISSAN CHEMICAL CORPORATION, priority 2019, published 2023)

Columns and labels:
late watergrass = experiment: Test Example 1: herbicidal activity, application before weed generation under submerged conditions (Table 16, symbol A); format: in vivo, late watergrass (Echinochloa oryzicola); details: 320 g/ha applied herbicide
Method in brief: (§1)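 Alluvial soil was flooded to 4 cm depth, weed seeds were sown mixed and 2.5-leaf rice seedlings were transplanted. On sowing day, the compound's emulsion, diluted in water to a set dose, was applied to the water surface. Plants grew at 25–30 °C and were scored 0–5 after three weeks.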

Japanese bulrush = experiment: Test Example 1: herbicidal activity, application before weed generation under submerged conditions (Table 16, symbol B); format: in vivo, Japanese bulrush (Schoenoplectus juncoides); details: 320 g/ha applied herbicide
Method in brief: as §1

oval-leafed pondweed = experiment: Test Example 1: herbicidal activity, application before weed generation under submerged conditions (Table 16, symbol C); format: in vivo, oval-leafed pondweed (Monochoria vaginalis); details: 320 g/ha applied herbicide
Method in brief: as §1

barnyard grass = experiment: Test Example 3: herbicidal effect by foliage application, Wagner pot (Table 18, symbol H); format: in vivo, barnyard grass (Echinochloa crus-galli); details: for herbicidal effect on H (barnyard grass), rating 0-5: 320 g/ha; for herbicidal effect on H: barnyard grass: amount of applied herbicide 320 g/ha
Method in brief: (§2)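 Plants were sown in alluvial soil held under 0.1–0.5 cm standing water and grown 14 days in a greenhouse at 25–30 °C. An emulsifiable formulation, water-diluted to the set dose, was then sprayed onto the foliage, and effects were scored three weeks later using previously defined criteria.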

Chinese sprangletop = experiment: Test Example 3: herbicidal effect by foliage application, Wagner pot (Table 18, symbol D); format: in vivo, chinese sprangletop (Leptochloa chinensis); details: for herbicidal effect on D (Chinese sprangletop), rating 0-5: 320 g/ha; for herbicidal effect on D: Chinese sprangletop: amount of applied herbicide 320 g/ha
Method in brief: as §2

rice flat sedge = experiment: Test Example 3: herbicidal effect by foliage application, Wagner pot (Table 18, symbol E); format: in vivo, rice flat sedge (Cyperus iria); details: for herbicidal effect on E (rice flat sedge), rating 0-5: 320 g/ha; for herbicidal effect on E: rice flat sedge: amount of applied herbicide 320 g/ha
Method in brief: as §2

Italian ryegrass [1] = experiment: Test Example 4: herbicidal effect by soil treatment (Table 19, symbol K); format: in vivo, Italian ryegrass (Lolium multiflorum)
Method in brief: (§3)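 Three weeks of greenhouse growth at 25° C. to 30° C. followed a uniform surface spray of water-diluted emulsion at a predetermined herbicide amount. Seeds had been sown beforehand under about 1.5 cm of sterilized diluvial soil. Grading followed criteria set out in an earlier test.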

windgrass = experiment: Test Example 4: herbicidal effect by soil treatment (Table 19, symbol L); format: in vivo, windgrass (Apera spica-venti)
Method in brief: as §3

lambsquarters [2] = experiment: Test Example 4: herbicidal effect by soil treatment (Table 19, symbol O); format: in vivo, lambsquarters (Chenopodium album)
Method in brief: as §3

chickweed = experiment: Test Example 4: herbicidal effect by soil treatment (Table 19, symbol P); format: in vivo, common chickweed (Stellaria media)
Method in brief: as §3

southern crabgrass = experiment: Test Example 5: herbicidal effect by foliage application, plastic box (Table 20, symbol F); format: in vivo, southern crabgrass (Digitaria ciliaris); details: foliage application
Method in brief: (§4)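 Plants sown in sterilized diluvial soil and grown 14 days in a greenhouse at 25° C to 30° C, then sprayed on the foliage with the compound's emulsion diluted in water to a predetermined herbicide amount. Injury to weeds and crops scored three weeks after application on a visual rating scale.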

green foxtail = experiment: Test Example 5: herbicidal effect by foliage application, plastic box (Table 20, symbol G); format: in vivo, green foxtail (Setaria viridis); details: foliage application
Method in brief: as §4

wild oat = experiment: Test Example 5: herbicidal effect by foliage application, plastic box (Table 20, symbol I); format: in vivo, wild oat (Avena fatua); details: foliage application
Method in brief: as §4

blackgrass = experiment: Test Example 5: herbicidal effect by foliage application, plastic box (Table 20, symbol J); format: in vivo, blackgrass (Alopecurus myosuroides); details: foliage application
Method in brief: as §4

Italian ryegrass [3] = experiment: Test Example 5: herbicidal effect by foliage application, plastic box (Table 20, symbol K); format: in vivo, Italian ryegrass (Lolium multiflorum); details: foliage application
Method in brief: as §4

velvetleaf = experiment: Test Example 5: herbicidal effect by foliage application, plastic box (Table 20, symbol M); format: in vivo, velvetleaf (Abutilon theophrasti); details: foliage application
Method in brief: as §4

lambsquarters [4] = experiment: Test Example 5: herbicidal effect by foliage application, plastic box (Table 20, symbol O); format: in vivo, lambsquarters (Chenopodium album); details: foliage application
Method in brief: as §4

[5] = amount of applied herbicide 320 g/ha
[6] = 320 g/ha, three weeks after application
[7] = 320 g/ha, evaluated three weeks after application
[8] = AAH 320 g/ha, evaluated three weeks after application
[9] = 320 g/ha, 3 weeks after application

Compound: Cc1nn(C)c(=O)c(-c2c(-c3ccc(OC(C)C)cc3)sc3ccccc23)c1O [1-020]
- Herbicidal effect on A: late watergrass (grade 0-5) (late watergrass): 4 (Herbicidal rate of 70% or more and less than 90%)
- Herbicidal effect on B: Japanese bulrush (grade 0-5) (Japanese bulrush): 5 (Herbicidal rate of 90% or more (almost completely withered))
- Herbicidal effect on C: oval-leafed pondweed (grade 0-5) (oval-leafed pondweed): 4 (Herbicidal rate of 70% or more and less than 90%)
- herbicidal effect on H (barnyard grass), rating 0-5 (barnyard grass): 5 (Herbicidal rate of 90% or more (almost completely withered))
- herbicidal effect on D (Chinese sprangletop), rating 0-5 (Chinese sprangletop): 1 (Herbicidal rate of 5% or more and less than 20%)
- herbicidal effect on E (rice flat sedge), rating 0-5 (rice flat sedge): 5 (Herbicidal rate of 90% or more (almost completely withered))
- herbicidal effect rating, K: Italian ryegrass (Italian ryegrass [1]; [5]): 3 (Herbicidal rate of 40% or more and less than 70%)
- herbicidal effect rating, L: windgrass (windgrass; [5]): 0 (Herbicidal rate of 5% or less (almost no effect))
- herbicidal effect rating, O: lambsquarters (lambsquarters [2]; [5]): 4 (Herbicidal rate of 70% or more and less than 90%)
- herbicidal effect rating, P: chickweed (chickweed; [5]): 3 (Herbicidal rate of 40% or more and less than 70%)
- herbicidal effect grade, F: southern crabgrass (southern crabgrass; [6]): 3 (Herbicidal rate of 40% or more and less than 70%)
- herbicidal effect grade, G: green foxtail (green foxtail; [6]): 3 (Herbicidal rate of 40% or more and less than 70%)
- herbicidal effect grade, I: wild oat (wild oat; [6]): 0 (Herbicidal rate of 5% or less (almost no effect))
- herbicidal effect grade, J: blackgrass (blackgrass; [6]): 4 (Herbicidal rate of 70% or more and less than 90%)
- herbicidal effect grade, K: Italian ryegrass (Italian ryegrass [3]; [6]): 3 (Herbicidal rate of 40% or more and less than 70%)
- herbicidal effect grade, M: velvetleaf (velvetleaf; [6]): 3 (Herbicidal rate of 40% or more and less than 70%)
- herbicidal effect grade, O: lambsquarters (lambsquarters [4]; [6]): 2 (Herbicidal rate of 20% or more and less than 40%)

Compound: CCCSc1ccc(-c2sc3ccc(F)cc3c2-c2c(OC(=O)CCC)c(C)nn(C)c2=O)cc1 [2-249]
- Herbicidal effect on A: late watergrass (grade 0-5) (late watergrass): 3 (Herbicidal rate of 40% or more and less than 70%)
- Herbicidal effect on B: Japanese bulrush (grade 0-5) (Japanese bulrush): 2 (Herbicidal rate of 20% or more and less than 40%)
- Herbicidal effect on C: oval-leafed pondweed (grade 0-5) (oval-leafed pondweed): 0 (Herbicidal rate of 5% or less (almost no effect))
- herbicidal effect on H: barnyard grass (barnyard grass): 5 (Herbicidal rate of 90% or more (almost completely withered))
- herbicidal effect on D: Chinese sprangletop (Chinese sprangletop): 3 (Herbicidal rate of 40% or more and less than 70%)
- herbicidal effect on E: rice flat sedge (rice flat sedge): 5 (Herbicidal rate of 90% or more (almost completely withered))
- herbicidal effect on K: Italian ryegrass (Italian ryegrass [1]; [5]): 0 (Herbicidal rate of 5% or less (almost no effect))
- herbicidal effect on L: windgrass (windgrass; [5]): 0 (Herbicidal rate of 5% or less (almost no effect))
- herbicidal effect on O: lambsquarters (lambsquarters [2]; [5]): 3 (Herbicidal rate of 40% or more and less than 70%)
- herbicidal effect on P: chickweed (chickweed; [5]): 0 (Herbicidal rate of 5% or less (almost no effect))
- herbicidal effect on F: southern crabgrass (criteria 0-5) (southern crabgrass; [7]): 5 (Herbicidal rate of 90% or more (almost completely withered))
- herbicidal effect on G: green foxtail (criteria 0-5) (green foxtail; [7]): 5 (Herbicidal rate of 90% or more (almost completely withered))
- herbicidal effect on I: wild oat (criteria 0-5) (wild oat; [7]): 4 (Herbicidal rate of 70% or more and less than 90%)
- herbicidal effect on J: blackgrass (criteria 0-5) (blackgrass; [7]): 4 (Herbicidal rate of 70% or more and less than 90%)
- herbicidal effect on K: Italian ryegrass (criteria 0-5) (Italian ryegrass [3]; [7]): 3 (Herbicidal rate of 40% or more and less than 70%)
- herbicidal effect on M: velvetleaf (criteria 0-5) (velvetleaf; [7]): 5 (Herbicidal rate of 90% or more (almost completely withered))
- herbicidal effect on O: lambsquarters (criteria 0-5) (lambsquarters [4]; [7]): 4 (Herbicidal rate of 70% or more and less than 90%)

Compound: COc1cccc(S(=O)(=O)Oc2c(C)nn(C)c(=O)c2-c2c(-c3ccc(OC(F)F)cc3)sc3ccc(F)cc23)c1 [2-313]
- Herbicidal effect on A: late watergrass (grade 0-5) (late watergrass): 2 (Herbicidal rate of 20% or more and less than 40%)
- Herbicidal effect on B: Japanese bulrush (grade 0-5) (Japanese bulrush): 3 (Herbicidal rate of 40% or more and less than 70%)
- Herbicidal effect on C: oval-leafed pondweed (grade 0-5) (oval-leafed pondweed): 0 (Herbicidal rate of 5% or less (almost no effect))
- herbicidal effect on H: barnyard grass (barnyard grass): 5 (Herbicidal rate of 90% or more (almost completely withered))
- herbicidal effect on D: Chinese sprangletop (Chinese sprangletop): 2 (Herbicidal rate of 20% or more and less than 40%)
- herbicidal effect on E: rice flat sedge (rice flat sedge): 5 (Herbicidal rate of 90% or more (almost completely withered))
- herbicidal effect on K: Italian ryegrass (Italian ryegrass [1]; [5]): 5 (Herbicidal rate of 90% or more (almost completely withered))
- herbicidal effect on L: windgrass (windgrass; [5]): 0 (Herbicidal rate of 5% or less (almost no effect))
- herbicidal effect on O: lambsquarters (lambsquarters [2]; [5]): 3 (Herbicidal rate of 40% or more and less than 70%)
- herbicidal effect on P: chickweed (chickweed; [5]): 5 (Herbicidal rate of 90% or more (almost completely withered))
- F: southern crabgrass, herbicidal effect (criteria 0-5) (southern crabgrass; [8]): 4 (Herbicidal rate of 70% or more and less than 90%)
- G: green foxtail, herbicidal effect (criteria 0-5) (green foxtail; [8]): 5 (Herbicidal rate of 90% or more (almost completely withered))
- I: wild oat, herbicidal effect (criteria 0-5) (wild oat; [8]): 2 (Herbicidal rate of 20% or more and less than 40%)
- J: blackgrass, herbicidal effect (criteria 0-5) (blackgrass; [8]): 4 (Herbicidal rate of 70% or more and less than 90%)
- K: Italian ryegrass, herbicidal effect (criteria 0-5) (Italian ryegrass [3]; [8]): 5 (Herbicidal rate of 90% or more (almost completely withered))
- M: velvetleaf, herbicidal effect (criteria 0-5) (velvetleaf; [8]): 5 (Herbicidal rate of 90% or more (almost completely withered))
- O: lambsquarters, herbicidal effect (criteria 0-5) (lambsquarters [4]; [8]): 5 (Herbicidal rate of 90% or more (almost completely withered))

Compound: CCCC(=O)Oc1c(C)nn(C)c(=O)c1-c1c(-c2ccc(COC)cc2)sc2ccc(F)cc12 [2-023]
- Herbicidal effect on A: late watergrass (grade 0-5) (late watergrass): 2 (Herbicidal rate of 20% or more and less than 40%)
- Herbicidal effect on B: Japanese bulrush (grade 0-5) (Japanese bulrush): 0 (Herbicidal rate of 5% or less (almost no effect))
- Herbicidal effect on C: oval-leafed pondweed (grade 0-5) (oval-leafed pondweed): 0 (Herbicidal rate of 5% or less (almost no effect))
- herbicidal effect on H (barnyard grass), rating 0-5 (barnyard grass): 5 (Herbicidal rate of 90% or more (almost completely withered))
- herbicidal effect on D (Chinese sprangletop), rating 0-5 (Chinese sprangletop): 4 (Herbicidal rate of 70% or more and less than 90%)
- herbicidal effect on E (rice flat sedge), rating 0-5 (rice flat sedge): 5 (Herbicidal rate of 90% or more (almost completely withered))
- herbicidal effect rating, K: Italian ryegrass (Italian ryegrass [1]; 320 g/ha): 4 (Herbicidal rate of 70% or more and less than 90%)
- herbicidal effect rating, L: windgrass (windgrass; 320 g/ha): 0 (Herbicidal rate of 5% or less (almost no effect))
- herbicidal effect rating, O: lambsquarters (lambsquarters [2]; 320 g/ha): 5 (Herbicidal rate of 90% or more (almost completely withered))
- herbicidal effect rating, P: chickweed (chickweed; 320 g/ha): 3 (Herbicidal rate of 40% or more and less than 70%)
- effect on southern crabgrass (F) (southern crabgrass; [9]): 5 (Herbicidal rate of 90% or more (almost completely withered))
- effect on green foxtail (G) (green foxtail; [9]): 5 (Herbicidal rate of 90% or more (almost completely withered))
- effect on wild oat (I) (wild oat; [9]): 0 (Herbicidal rate of 5% or less (almost no effect))
- effect on blackgrass (J) (blackgrass; [9]): 4 (Herbicidal rate of 70% or more and less than 90%)
- effect on Italian ryegrass (K) (Italian ryegrass [3]; [9]): 4 (Herbicidal rate of 70% or more and less than 90%)
- effect on velvetleaf (M) (velvetleaf; [9]): 5 (Herbicidal rate of 90% or more (almost completely withered))
- effect on lambsquarters (O) (lambsquarters [4]; [9]): 4 (Herbicidal rate of 70% or more and less than 90%)
